Data published in patent US5134151A, “2-picolylamine derivatives” (J. Uriach & Cia, priority 1989, dated 1992).

Legend:
[1] = system: platelet aggregation induced by PAF; assay: Inhibition of Platelet Aggregation Induced by PAF (Born nephelometric technique, rabbit platelet rich plasma); format: cell-based, male New Zealand albino rabbits; conditions: PAF (C18) 16 nM final
Method: The blood is obtained by cardiac puncture of male New Zealand albino rabbits (between 2 and 2.5 Kg of weight) and coagulation is prevented by adding 1 part of 3.16% sodium citrate dihydrate in 9 parts of blood. The platelet rich plasma (PRP) is prepared by blood centrifugation at 250×g for 10 min. at 4° C. and it is diluted with platelet poor plasma (PPP) by additional centrifugation at 3000×g for 10 min. The amount of platelets is adjusted to 3×10^-5 /mm^3. the platelet aggregation induced by PAF (C18; prepared in our laboratory) (16 nM, final) is determined by the Born nephelometric technique (J. Physiol., 1962, 162, 67) using a aggregometer Chrono-log 500. The activities of the inhibitors are expressed as IC50, that is to say the concentration of the drug needed to inhibit the platelet aggregation by 50%.

[2] = system: hypotension induced by PAF; assay: Inhibition of the Hypotensive Effect Induced by PAF in Normotense Rats; format: in vivo, Male Sprage Dawley rats; conditions: Rattus norvegicus, iv, anesthetized, compound i.v. 3 min before PAF 0.5 mcg/Kg i.v., average arterial pressure, read-out: CI50 (inhibition of PAF-induced hypotension)
Method: Male Sprage Dawley rats, of 180-220 g of weight, anesthetized with sodium pentobarbital (50 mg/Kg, i.p. 1 mL/100 g) have been used. In order to measure the average arterial pressure, a polyethylene catheter is introduced into the carotid artery. The arterial pressure is recorded with the help of a transducer connected with a R611 Beckman polygraph. The tested compounds are administered through the femoral vein 3 min before the injection of PAF (0.5 mcg/Kg, i.v.).

[3] = Oryctolagus cuniculus, Platelet

## CCCCCCCCCCCCCCCCCCOCCOCCOC(=O)N(Cc1cccc[n+]1CC)C(C)=O.[I-] [Compound 3, 2-(N-Acetyl-N-((2-(2-octadecyloxyethoxy)ethoxy)carbonyl)aminomethyl)-1-ethylpyridinium iodide]
[1]; [3]
  IC50: 19 nM
[2]
  ED50: 0.022 mg/kg

## CC[n+]1ccccc1CN(C(C)=O)C(=O)OCCOCCOC(=O)C(C)(C)C.[I-] [Compound 9, 2-(N-Acetyl-N-((2-(2-pivaloyloxyethoxy)ethoxy)carbonyl)aminomethyl)-1-ethylpyridinium iodide]
[1]; [3]
  IC50: 1500 nM
[2]
  ED50: 5 mg/kg

## CCCCCCCCCCCCCCCCCNC(=O)OCCOCCOC(=O)N(Cc1cccc[n+]1CC)C(C)=O [Compound 12, 2-(N-Acetyl-N-((2-(2-heptadecylcarbamoyloxy)ethoxy)ethoxy)carbonyl)aminomethyl)-1-ethylpyridium chloride]
[1]; [3]
  IC50: 27 nM
[2]
  ED50: 0.067 mg/kg

## CCCCCCCCCCCCCCCCCNC(=O)OCCOCCOC(=O)NCc1cccc[n+]1CC.[I-] [Compound 13, 2-(N-((2-(2-(Heptadecylcarbamoyloxy)ethoxy)ethoxy)carbonyl)aminomethyl)-1-ethylpyridinium iodide]
[1]; [3]
  IC50: 1600 nM
[2]
  ED50: 0.5 mg/kg

## CCCCCCCCCCCCCCCCCNC(=O)OCCOCCOC(=O)N(Cc1cccc[n+]1C)C(C)=O.[I-] [Compound 14, 2-(N-Acetyl-N-((2-(2-(heptadecylcarbamoyloxy)ethoxy)ethoxy)carbonyl)aminomethyl)-1-methylpyridinium iodide]
[1]; [3]
  IC50: 54 nM
[2]
  ED50: 0.13 mg/kg

## CCCCCCCCCCCCCCCCCNC(=O)OCCOCCOC(=O)N(Cc1cccc[n+]1CC)C(=O)OCC.[I-] [Compound 16, 2-(N-Ethoxycarbonyl-N-((2-(2-(heptadecylcarbamoyloxy)ethoxy)ethoxy)carbonyl)aminomethyl)-1-ethylpyridinium iodide]
[1]; [3]
  IC50: 12 nM
[2]
  ED50: 0.021 mg/kg

## CCCCCCCCCCCCCCCNC(=O)OCCOCCOC(=O)N(Cc1cccc[n+]1CC)C(C)=O.[I-] [Compound 19, 2-(N-Acetyl-N-((2-(2-(pentadecylcarbamoyloxy)ethoxy)ethoxy)carbonyl)aminomethyl)-1-ethylpyridinium iodide]
[1]; [3]
  IC50: 19 nM
[2]
  ED50: 0.041 mg/kg

## CCCCCCCCCCCCCCCNC(=O)OCCOCCOC(=O)N(Cc1cccc[n+]1CCC)C(C)=O.[I-] [Compound 20, 2-(N-Acetyl-N-((2-(2-(pentadecylcarbamoyloxy)ethoxy)ethoxy)carbonyl)aminomethyl)-1-propylpyridinium iodide]
[1]; [3]
  IC50: 220 nM
[2]
  ED50: 0.68 mg/kg

## CCCCCCCCCCCCCCCNC(=O)OCCOCCOC(=O)N(Cc1cccc[n+]1CC)C(=O)OCC.[I-] [Compound 22, 2-(N-Ethoxycarbonyl-N-((2-(2-(pentadecylcarbamoyloxy)ethoxy)ethoxy)carbonyl)aminomethyl)-1-ethylpyridinium iodide]
[1]; [3]
  IC50: 27 nM
[2]
  ED50: 0.032 mg/kg

## CCCCCCCCCCCCCCCNC(=O)OCCOCCOC(=O)N(Cc1cccc[n+]1CC)C(=O)OCC(C)C.[Cl-] [Compound 25, 2-(N-Isobutyloxycarbonyl-N-((2-(2-(pentadecylcarbamoyloxy)ethoxy)ethoxy)carbonyl)aminomethyl)-1-ethylpyridinium chloride]
[1]; [3]
  IC50: 51 nM
[2]
  ED50: 0.064 mg/kg

## CCCCCCCCCCCCCCCNC(=O)OCCCCCOC(=O)N(Cc1cccc[n+]1CC)C(C)=O.[I-] [Compound 31, 2-(N-Acetyl-N-((5-(pentadecylcarbamoyloxy)pentoxy)carbonyl)aminomethyl)-1-ethylpyridinium iodide]
[1]; [3]
  IC50: 32 nM
[2]
  ED50: 0.057 mg/kg

## CCCCCCCCCCCCCCCNC(=O)OCCSCCOC(=O)N(Cc1cccc[n+]1CC)C(C)=O.[I-] [Compound 37, 2-(N-Acetyl-N-((2-(2-(pentadecylcarbamoyloxy)ethylthio)ethoxy)carbonyl)aminomethyl)-1-ethylpyridinium iodide]
[1]; [3]
  IC50: 6.8 nM
[2]
  ED50: 0.044 mg/kg

## CC[n+]1ccccc1CN(C(C)=O)C(=O)OCCOCCOC(=O)NCCCc1ccccc1.[I-] [Compound 40, 2-(N-Acetyl-N-((2-(2-(3-phenylpropylcarbamoyloxy)ethoxy)ethoxy)carbonyl)aminomethyl)-1-ethylpyridinium iodide]
[1]; [3]
  IC50: 1200 nM
[2]
  ED50: 0.88 mg/kg

## CC[n+]1ccccc1CN(C(C)=O)C(=O)OCCOCCOC(=O)NCC1CCCCC1.[I-] [Compound 43, 2-(N-Acetyl-N-((2-(2-(cyclohexylmethylcarbamoyloxy)ethoxy)ethoxy)carbonyl)aminomethyl)-1-ethylpyridinium iodide]
[1]; [3]
  IC50: 2000 nM
[2]
  ED50: 0.5 mg/kg

## CCCCCCCCCCCCCCCNC(=O)OCCOCCOCCOC(=O)N(Cc1cccc[n+]1CC)C(C)=O.[I-] [Compound 46, 2-(N-Acetyl-N-((2-(2-(2-(pentadecylcarbamoyloxy)ethoxy)ethoxy)ethoxy)carbonyl)aminomethyl)-1-ethylpyridinium iodide]
[1]; [3]
  IC50: 12 nM
[2]
  ED50: 0.028 mg/kg

## CCCCCCCCCCCCCCCCCNC(=O)OCCSCCOC(=O)N(Cc1cccc[n+]1CC)C(C)=O.[I-] [Compound 62, 2-(N-Acetyl-N-((2-(2-(heptadecylcarbamoyloxy)ethylthio)ethoxy)carbonyl)aminomethyl)-1-ethylpyridinium iodide]
[1]
  IC50: 4.4 nM
[2]
  ED50: 0.013 mg/kg

## CCCCCCCCCCCCCCCCCNC(=O)OCCSCCOC(=O)N(Cc1cccc[n+]1CC)C(C)=O.[Cl-] [Compound 63, 2-(N-Acetyl-N-((2-(2-(heptadecylcarbamoyloxy)ethylthio)ethoxy)carbonyl)aminomethyl)-1-ethylpyridinium chloride]
[1]
  IC50: 12 nM
[2]
  ED50: 0.018 mg/kg

## CCCCCCCCCCCCCCCCOCCSCCOC(=O)N(Cc1cccc[n+]1CC)C(C)=O.[I-] [Compound 66, 2-(N-Acetyl-N-((2-(2-hexadecyloxyethylthio)ethoxy)carbonyl)aminomethyl)-1-ethylpyridinium iodide]
[1]; [3]
  IC50: 4.4 nM
[2]
  ED50: 0.014 mg/kg

## CCCCCCCCCCCCCCCCCCOCCSCCOC(=O)N(Cc1cccc[n+]1CC)C(C)=O [Compound 69, 2-(N-Acetyl-N-((2-(2-octadecyloxyethylthio)ethoxy)carbonyl)aminomethyl)-1-ethylpyridinium idodide]
[1]; [3]
  IC50: 15 nM
[2]
  ED50: 0.016 mg/kg
